# Test results: patent US20080261891A1, “COMPOSITIONS AND METHODS FOR USING SYRINGOPEPTIN 25A AND RHAMNOLIPIDS” (Utah State University, priority 2007, published 2008)
# Tests used:
# [1] = tested on: human embryonic kidney cells (HEK 293); test: Toxicity to mammalian cells, percent cell death (Nucleocounter); conditions: positive control
# Protocol: (§1) Toxicity of the two compounds to mammalian cells was assayed in cell culture using mouse enteroendocrine cells (STC-1), human embryonic kidney cells (HEK 293; ATCC CRL-1573), and human lung fibroblasts (LL47; ATCC CCL-135). […] The human embryonic kidney cells and human lung fibroblasts were grown as per the American Type Culture Collection's recommendation, while the mouse enteroendocrine cells were grown as described by Vincent et al. (2001, Proc. Natl. Acad. Sci., 99:2392-2397). Media and sera were purchased from HyClone Laboratories (Logan, Utah). All cells were grown in 10% fetal bovine serum (FBS).
# (§2) The number in the parenthesis represents the concentration of each compound in μg/mL. The percent cell death was benchmarked to 100% lysis with the positive control. The number of total cells and dead cells were counted after 6, 24, and 48 h using a Nucleocounter Automated cell counting system (New Brunswick; Edison, N.J.). Briefly, cells (STC, 200,000 cells/well; HEK 293, 200,000 cells/well; and LL47, 100,000 cells/well) were incubated in the appropriate medium for 24 h prior to addition of fresh media containing the antimicrobial compounds. After addition of the antimicrobial compound, the cell cultures were incubated at 37° C. with 5% CO2 for 6, 24, and 48 h. Cells were harvested by trypsinization using 0.25% trypsin-EDTA for 2 min. The trypsin was neutralized by addition of 200 μL of serum containing fresh medium. The cells were then harvested and transferred to 1.5 mL tubes, centrifuged (3-5 min at <100×g), and resuspended in 200 μL of fresh medium. For the total cell count, 100 μL of the suspension was added to lysis buffer (Reagent A100 in the starting kit (Cat No. M1293-0020, New Brunswick Scientific) for 30 s, which was stabilized using 100 μL of Reagent B. A positive control of completely lysed cells was used along with a negative control using sterile PBS (pH 7.4). For dead cell counts, 100 μL of cell lysate was counted without the use of lysis buffer or stabilizing buffer. All cell counts were obtained using the Nucleocounter automated cell counting system. Data were reported as the percent of cell death. The toxicity testing was done in replicate using three wells per test.
# [2] = tested on: human lung fibroblasts (LL47); test: as above; conditions: positive control
# Protocol: as §1, §2
# [3] = tested on: mouse enteroendocrine cells (STC-1); test: as above; conditions: positive control
# Protocol: as §1, §2
# M. tuberculosis H37Rv = test: MIC by microplate Alamar Blue assay (MABA); assay type: cell-based, Mycobacterium tuberculosis; conditions: 7H12 media
Compound,lysis [1],lysis [2],lysis [3],expected MIC range (quality control) (M. tuberculosis H37Rv)
triton [reference compound],100%,100%,100%,
NNC(=O)c1ccncc1 [Isoniazid],,,,0.025 to 0.1 µg/mL
